For one assay, the system named is A431 cells. Description: MTT cell growth inhibition assay, A431. The class given is cell-based. The settings on record: Homo sapiens, A-431, 72 h. As for the experimental part:
(§1) Inhibition of cell growth by compounds was measured using MTT assay (Mosmann, T., Journal of Immunological Methods, 1983, 65, 55-63). Tumor cell lines were purchased from ATCC (American Type Culture Collection, Manassas, Va.). All cell lines were maintained in RPMI 1640 (Hyclone) supplemented with 10% fetal bovine serum (FBS, Hyclone), glutamine (2 mM, Hyclone), and antibiotics (penicillin 100 U/mL and streptomycin 50 μg/mL) at 37° C. in a humidified atmosphere of 5% CO2 in air. Taxol (as a positive control, Sigma) and compounds were dissolved in DMSO (Sigma), and the final concentration of DMSO in the medium was 1%. Tumor cells were plated in 96-well plates at densities of about 4000 cells/well of a 96-well plate and allowed to adhere/grow for 24 h. They were then treated with various concentrations of drug for 72 h. 3-(4,5-Dimethylthiazol-2-yl)-2,5-diphenyltetrazolium bromide (MTT, Sigma) was used to determine the number of viable cells at the time of compound addition and the number of cells remaining after 72 h compound exposure. The number of cells remaining after 72 h was compared to the number of viable cells at the time of compound addition by measuring the absorbance at 570 nm, allowing for the calculation of growth inhibition.
(§2) All concentrations of compounds were tested in triplicate and controls were averaged over 4 wells. IC50 was calculated by plotting the concentration of compound vs the percentage of inhibition in treated wells using GraphPad Prism 5.
(§3) Tables 5 show IC50 values of several compounds of the invention in A549, A431, H1299, and H1975 human cancer cells. A549 cells have a mutation on KRAS, H3255 cells have L858R mutation, and H1975 cells have double EGFR mutations (L858R/T790M). The scale utilized in Table 5 is as follows: +++ less than 100 nM; ++ between 100 nM and 500 nM; and + greater than 500 nM.

The next assay relates to H1975 cells. Nature of the assay: MTT cell growth inhibition assay, H1975. The class given is cell-based. The conditions noted are these: Homo sapiens, NCI-H1975, H1975 cells (EGFR L858R/T790M), 72 h. As for the experimental part: as §1, §2, §3
For a further assay, the target named is T1, EGFR (ErbB1) (Homo sapiens, UniProt P00533).
T1 construct: purchased Invitrogen
Description: Z'-LYTE kinase inhibition assay (Invitrogen), EGFR. The class given is biochemical. The conditions noted are these: for inhibition at 0.041 µM: compound at 41 nM, 10 μM of ATP; for inhibition at 0.1 µM: compound at 100 nM, [ATP] = Km. As for the experimental part: (§4) Inhibitory activities of compounds against BTK, EGFR and EGFR mutants (EGFR L858R/T790M) were measured by Invitrogen using Z′-LYTE® Method as briefly described in the following.
(§5) Test Compounds are screened in 1% DMSO (final) in the well. For 10 point titrations, 3-fold serial dilutions are conducted from the starting concentration. All ATP Solutions are diluted to a 4× working concentration in Kinase Buffer (50 mM HEPES pH 7.5, 0.01% BRIJ-35, 10 mM MgCl2, 1 mM EGTA). Peptide/Kinase Mixtures are diluted to a 2× working concentration in the appropriate Kinase Buffers as described below.
(i) Peptide/Kinase Mixtures for measurement of EGFR (ErbB1):
The 2×EGFR (ErbB1)/Tyr 04 mixture is prepared in 50 mM HEPES pH 7.5, 0.01% BRIJ-35, 10 mM MgCl2, 4 mM MnCl2, 1 mM EGTA, 2 mMDTT. The final 10 μL Kinase Reaction consists of 1.1-5.25 ng EGFR (ErbB1) and 2 μM Tyr 04 in 50 mM HEPES pH 7.5, 0.01% BRIJ-35, 10 mM MgCl2, 2 mM MnCl2, 1 mM EGTA, 1 mM DTT. After the 1 hour Kinase Reaction incubation, 5 μL of a 1:64 dilution of DevelopmentReagent B is added.
(§6) Reaction starts by 30-second shaking of mixture consisting of 2.5 μL 4× test compound, 5 μL 2× kinase reaction mixture and 2.5 μL 4×ATP Solution on Bar-coded Corning, low volume NBS, black 384-well plate (Corning Cat. #3676). Then the mixture is incubated for 60-minute at room temperature for the kinase reaction, followed by addition of 5 μL of a 1:1024 dilution of development reagent A and 30-second plate shake. The mixture is then incubated for another 60-minute at room temperature for development reaction. Finally fluorescence is read by plate reader. […] The scale utilized in Tables 2 and 3 is as follows: ++ more than 50% inhibition and + less than 50% inhibition.
(§7) To determine IC50 of a compound against EGFR or EGFR mutants, a series of concentrations of the compound were tested for the inhibition. IC50 was calculated by plotting the concentration of compound vs the percentage of inhibition in treated wells using GraphPad Prism 5. […] The scale utilized in Table 4 is as follows: ++ less than 100 nM and + greater than 100 nM.

A further assay deals with T2, EGFR (ErbB1) T790M L858R (Homo sapiens, UniProt P00533, L858R/T790M).
T2 construct: purchased Invitrogen
Nature of the assay: Z'-LYTE kinase inhibition assay (Invitrogen), EGFR L858R/T790M. The class given is biochemical. The conditions noted are these: for inhibition at 0.0137 µM: compound at 13.7 nM, 10 μM of ATP; for inhibition at 0.1 µM: compound at 100 nM, [ATP] = Km. How it is done: as §4, §5
(iv) Peptide/Kinase Mixtures for measurement of EGFR (ErbB1) T790M L858R:
The 2×EGFR (ErbB1) T790M L858R/Tyr 04 mixture is prepared in 50 mM HEPES pH 6.5, 0.01% BRIJ-35, 10 mM MgCl2, 1 mM EGTA, 0.02% NaN3. The final 10 μL Kinase Reaction consists of 0.38-4.22 ng EGFR (ErbB1) T790M L858R and 2 μM Tyr 04 in 50 mM HEPES pH 7.0, 0.01% BRIJ-35, 10 mM MgCl2, 1 mM EGTA, 0.01% NaN3. After the 1 hour Kinase Reaction incubation, 5 μL of a 1:64 dilution of Development Reagent B is added.
as §6, §7

The target of a further assay is T3, BTK (Homo sapiens, UniProt Q06187).
T3 construct: purchased Invitrogen
Nature of the assay: Z'-LYTE kinase inhibition assay (Invitrogen), BTK. The class given is biochemical. The settings on record: for inhibition at 0.1 µM: compound at 100 nM, [ATP] = Km. As for the experimental part:
as §4, §5
(v) Peptide/Kinase Mixtures for measurement of BTK:
The 2×BTK/Tyr 01 mixture is prepared in 50 mM HEPES pH 7.5, 0.01% BRIJ-35, 10 mM MgCl2, 1 mM EGTA. The final 10 μL Kinase Reaction consists of 1.04-10.4 ng BTK and 2 μM Tyr 01 in 50 mM HEPES pH 7.5, 0.01% BRIJ-35, 10 mM MgCl2, 1 mM EGTA. After the 1 hour Kinase Reaction incubation, 5 μL of a 1:256 dilution of Development Reagent B is added.
as §6, §7

The next assay relates to A549 cells. Nature of the assay: MTT cell growth inhibition assay, A549. The class given is cell-based. The settings on record: Homo sapiens, A549 cells (KRAS mutation), 72 h. As for the experimental part: as §1, §2, §3

The structures appear in SMILES notation.

Twelve compounds from patent publication US10947201B2, “Certain chemical entities, compositions, and methods” (NEUPHARMA, INC., priority 2015, dated 2021) can be followed below.

T1 sequence (P00533 25-1210): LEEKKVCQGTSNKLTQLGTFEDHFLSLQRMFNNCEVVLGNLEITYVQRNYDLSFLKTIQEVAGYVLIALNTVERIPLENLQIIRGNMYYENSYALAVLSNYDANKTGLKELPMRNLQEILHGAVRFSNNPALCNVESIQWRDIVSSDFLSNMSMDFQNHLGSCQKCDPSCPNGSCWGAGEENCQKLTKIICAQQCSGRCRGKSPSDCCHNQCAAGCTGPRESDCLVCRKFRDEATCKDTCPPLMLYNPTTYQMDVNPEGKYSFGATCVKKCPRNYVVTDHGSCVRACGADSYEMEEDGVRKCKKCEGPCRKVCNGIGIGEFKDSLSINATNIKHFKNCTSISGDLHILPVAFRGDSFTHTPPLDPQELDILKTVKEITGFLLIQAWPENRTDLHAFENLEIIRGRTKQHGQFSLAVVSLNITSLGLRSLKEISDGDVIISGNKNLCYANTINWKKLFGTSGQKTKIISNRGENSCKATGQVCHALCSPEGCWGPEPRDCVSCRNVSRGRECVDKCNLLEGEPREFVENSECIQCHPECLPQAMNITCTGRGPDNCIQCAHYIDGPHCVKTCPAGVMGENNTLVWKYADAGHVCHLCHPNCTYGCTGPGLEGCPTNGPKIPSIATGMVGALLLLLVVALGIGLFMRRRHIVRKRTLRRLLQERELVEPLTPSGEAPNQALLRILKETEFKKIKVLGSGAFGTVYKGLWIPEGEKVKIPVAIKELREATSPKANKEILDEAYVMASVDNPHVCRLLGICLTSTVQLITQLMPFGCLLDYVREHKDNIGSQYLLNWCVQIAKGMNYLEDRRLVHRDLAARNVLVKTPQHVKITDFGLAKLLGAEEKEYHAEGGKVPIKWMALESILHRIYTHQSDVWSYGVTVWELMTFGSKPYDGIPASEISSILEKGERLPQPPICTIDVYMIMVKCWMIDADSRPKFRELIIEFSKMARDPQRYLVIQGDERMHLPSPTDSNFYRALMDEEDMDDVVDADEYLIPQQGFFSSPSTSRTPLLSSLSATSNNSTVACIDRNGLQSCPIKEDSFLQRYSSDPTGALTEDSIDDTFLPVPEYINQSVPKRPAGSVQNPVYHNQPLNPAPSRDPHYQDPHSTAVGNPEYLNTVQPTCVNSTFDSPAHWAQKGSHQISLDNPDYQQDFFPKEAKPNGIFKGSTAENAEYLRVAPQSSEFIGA
T2 sequence (P00533 25-1210 T790M/L858R): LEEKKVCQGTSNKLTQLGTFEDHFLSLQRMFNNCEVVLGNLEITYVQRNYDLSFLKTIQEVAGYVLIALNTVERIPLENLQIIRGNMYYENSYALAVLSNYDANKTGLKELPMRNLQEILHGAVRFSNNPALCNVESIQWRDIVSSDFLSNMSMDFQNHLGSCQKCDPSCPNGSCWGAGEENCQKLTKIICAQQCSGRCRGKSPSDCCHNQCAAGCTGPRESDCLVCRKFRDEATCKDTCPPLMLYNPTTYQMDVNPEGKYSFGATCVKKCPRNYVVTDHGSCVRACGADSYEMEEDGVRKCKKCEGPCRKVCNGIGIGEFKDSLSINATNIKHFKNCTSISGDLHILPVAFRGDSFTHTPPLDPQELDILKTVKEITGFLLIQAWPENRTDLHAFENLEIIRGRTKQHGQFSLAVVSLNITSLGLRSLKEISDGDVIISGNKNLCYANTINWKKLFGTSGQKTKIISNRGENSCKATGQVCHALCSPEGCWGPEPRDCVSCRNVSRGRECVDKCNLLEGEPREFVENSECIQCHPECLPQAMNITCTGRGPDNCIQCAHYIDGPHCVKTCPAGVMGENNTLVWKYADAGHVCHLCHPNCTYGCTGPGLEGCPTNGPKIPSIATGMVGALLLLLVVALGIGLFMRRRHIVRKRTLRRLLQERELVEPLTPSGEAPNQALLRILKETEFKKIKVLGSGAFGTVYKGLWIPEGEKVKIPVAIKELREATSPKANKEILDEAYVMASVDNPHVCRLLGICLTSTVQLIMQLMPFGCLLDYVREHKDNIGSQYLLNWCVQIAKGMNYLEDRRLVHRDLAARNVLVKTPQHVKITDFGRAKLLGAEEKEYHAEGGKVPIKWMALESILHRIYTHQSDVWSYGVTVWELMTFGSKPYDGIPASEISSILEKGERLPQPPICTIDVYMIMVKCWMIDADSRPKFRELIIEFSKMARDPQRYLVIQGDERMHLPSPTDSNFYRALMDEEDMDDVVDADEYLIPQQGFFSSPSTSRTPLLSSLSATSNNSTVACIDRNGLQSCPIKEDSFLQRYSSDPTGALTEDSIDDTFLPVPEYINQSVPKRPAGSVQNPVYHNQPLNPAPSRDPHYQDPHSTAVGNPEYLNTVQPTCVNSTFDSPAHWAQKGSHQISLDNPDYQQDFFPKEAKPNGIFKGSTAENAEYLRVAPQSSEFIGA
T3 sequence (Q06187 whole entry): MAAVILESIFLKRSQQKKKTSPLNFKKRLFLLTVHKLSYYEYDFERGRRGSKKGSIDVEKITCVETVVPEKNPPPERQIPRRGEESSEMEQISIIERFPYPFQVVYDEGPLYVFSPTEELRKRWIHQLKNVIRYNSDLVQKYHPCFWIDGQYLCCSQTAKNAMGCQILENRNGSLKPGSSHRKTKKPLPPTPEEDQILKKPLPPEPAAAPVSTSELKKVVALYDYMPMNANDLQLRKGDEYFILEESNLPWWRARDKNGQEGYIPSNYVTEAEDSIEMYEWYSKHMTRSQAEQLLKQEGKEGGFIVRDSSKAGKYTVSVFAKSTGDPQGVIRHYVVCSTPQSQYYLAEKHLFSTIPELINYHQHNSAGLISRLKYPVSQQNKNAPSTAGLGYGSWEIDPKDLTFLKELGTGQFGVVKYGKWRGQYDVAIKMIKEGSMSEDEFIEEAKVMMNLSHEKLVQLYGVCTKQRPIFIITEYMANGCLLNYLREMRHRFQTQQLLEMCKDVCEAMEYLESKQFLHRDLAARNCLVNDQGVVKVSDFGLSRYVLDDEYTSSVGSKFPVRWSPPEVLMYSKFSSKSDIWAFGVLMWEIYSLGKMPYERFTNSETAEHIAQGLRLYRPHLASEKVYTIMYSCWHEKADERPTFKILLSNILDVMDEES

On to `C=CC(=O)Nc1cc(Nc2ncc3cccc(Cl)c3n2)ccc1N(C)CCN(C)C` [Example C002, N-(5-((8-chloroquinazolin-2-yl)amino)-2-((2-(dimethylamino)ethyl)(methyl)amino)phenyl) acrylamide], for which the IC50 with A431 cells is 100 to 500 nM; in the assay with H1975 cells, below 100 nM; at EGFR (ErbB1) it was above 100 nM; on EGFR (ErbB1) T790M L858R, above 100 nM; against BTK it was above 100 nM; in the assay with A549 cells, above 500 nM.

Take `C=CC(=O)Nc1cc(Nc2ncc3cccc(OC)c3n2)ccc1N(C)CCN(C)C` [Example C003, N-(2-((2-(dimethylamino)ethyl)(methyl)amino)-5-((8-methoxyquinazolin-2-yl)amino)phenyl)acrylamide]: the IC50 in the assay on A431 cells is 100 to 500 nM; in the assay on H1975 cells, below 100 nM; in the assay on A549 cells, above 500 nM. This compound yielded an inhibition at 0.0137 µM against EGFR (ErbB1) T790M L858R below 50%. For the same compound, the inhibition at 0.1 µM at EGFR (ErbB1) T790M L858R and against BTK was below 50% each time.

Take `C=CC(=O)Nc1cc(Nc2ncc3cccc(-c4ccccc4Cl)c3n2)ccc1N(C)CCN(C)C` [Example C008, N-(5-((8-(2-chlorophenyl)quinazolin-2-yl)amino)-2-((2-(dimethylamino)ethyl)(methyl)amino)phenyl) acrylamide]: the IC50 with H1975 cells and in the assay with A549 cells was 100 to 500 nM each time. Also, the inhibition at 0.041 µM on EGFR (ErbB1) is below 50%; against BTK (compound at 41 nM, 10 μM of ATP) it was above 50%. The figures for the inhibition at 0.1 µM on EGFR (ErbB1), against EGFR (ErbB1) T790M L858R and on BTK were below 50%, below 50% and above 50%, respectively. Besides, on EGFR (ErbB1) T790M L858R, the inhibition at 0.0137 µM is above 50%.

Consider `C=CC(=O)Nc1cc(Nc2ncc3cccc(-c4cccc(Cl)c4)c3n2)ccc1N1CCOCC1` [Example C016, N-(5-((8-(3-chlorophenyl)quinazolin-2-yl)amino)-2-morpholinophenyl)acrylamide], for which, in the assay with H1975 cells, the IC50 was below 100 nM. On EGFR (ErbB1), this compound displayed an inhibition at 0.041 µM below 50% and an inhibition at 0.1 µM below 50%. At EGFR (ErbB1) T790M L858R, this compound returned an inhibition at 0.0137 µM below 50% and an inhibition at 0.1 µM below 50%. This compound also gave an inhibition at 0.1 µM on BTK below 50%.

On to `C=CC(=O)Nc1cc(Nc2ncc3cccc(-c4cccc(Cl)c4)c3n2)c(OC)cc1N(C)CCN(C)C` [Example C017, N-(5-((8-(3-chlorophenyl)quinazolin-2-yl)amino)-2-((2-(dimethylamino)ethyl)(methyl)amino)-4-methoxyphenyl)acrylamide], for which the results for the 50% inhibitory concentration (IC50) in the assay with H1975 cells and in the assay with A549 cells were below 100 nM and 100 to 500 nM, respectively. Moreover, the inhibition at 0.1 µM against EGFR (ErbB1), against EGFR (ErbB1) T790M L858R and against BTK was above 50% in each case.

With `C=CC(=O)Nc1cc(Nc2ncc3cccc(-c4cccc(F)c4)c3n2)c(OC)cc1N(C)CCN(C)C` [Example C018, N-(2-((2-(dimethylamino)ethyl)(methyl)amino)-5-((8-(3-fluorophenyl)quinazolin-2-yl)amino)-4-methoxyphenyl)acrylamide], the IC50 with H1975 cells was below 100 nM; in the assay on A549 cells, 100 to 500 nM. For the same compound, the inhibition at 0.1 µM against EGFR (ErbB1), on EGFR (ErbB1) T790M L858R and against BTK was above 50% each time.

Turning to `C=CC(=O)Nc1cc(Nc2ncc3cccc(-c4cccc(F)c4)c3n2)c(OC)cc1OC1CCN(C)C1` (centres unmarked) [Example C019, N-(5-((8-(3-fluorophenyl)quinazolin-2-yl)amino)-4-methoxy-2-((1-methylpyrrolidin-3-yl)oxy)phenyl)acrylamide], the concentration for half-maximal inhibition (IC50) in the assay on H1975 cells was below 100 nM; in the assay with A549 cells, 100 to 500 nM. In addition, the inhibition at 0.1 µM against EGFR (ErbB1), at EGFR (ErbB1) T790M L858R and at BTK was above 50% throughout.

As to `C=CC(=O)Nc1cc(Nc2ncc3cccc(-c4cccc(Cl)c4)c3n2)c(OC)cc1OC1CCN(C)C1` (centres unmarked) [Example C020, N-(5-((8-(3-chlorophenyl)quinazolin-2-yl)amino)-4-methoxy-2-((1-methylpyrrolidin-3-yl)oxy)phenyl)acrylamide], the IC50 in the assay with H1975 cells is below 100 nM; in the assay on A549 cells, 100 to 500 nM. In addition, the inhibition at 0.1 µM at EGFR (ErbB1), against EGFR (ErbB1) T790M L858R and on BTK was above 50% each time.

Take `C=CC(=O)Nc1cc(Nc2ncc3cccc(-c4cncc(Cl)c4)c3n2)ccc1N(C)CCN(C)C` [Example C021]: the IC50 with H1975 cells was below 100 nM. Besides, the inhibition at 0.1 µM is below 50% against EGFR (ErbB1), above 50% against EGFR (ErbB1) T790M L858R and above 50% on BTK.

For `C=CC(=O)Nc1cc(Nc2ncc3cccc(-c4cccc(F)c4)c3n2)c(OC)cc1N1CCC(N(C)C)C1` (centres unmarked) [Example C023, N-(2-(3-(dimethylamino)pyrrolidin-1-yl)-5-((8-(3-fluorophenyl)quinazolin-2-yl)amino)-4-methoxyphenyl)acrylamide], the IC50 in the assay with A431 cells was below 100 nM; in the assay on H1975 cells, below 100 nM; in the assay with A549 cells, above 500 nM. On BTK, this compound registered an inhibition at 0.1 µM above 50%.

On to `C=CC(=O)Nc1cc(Nc2ncc3cccc(-c4cccc(F)c4)c3n2)ccc1N1CCC(N(C)C)C1` (centres unmarked) [Example C024, N-(2-(3-(dimethylamino)pyrrolidin-1-yl)-5-((8-(3-fluorophenyl)quinazolin-2-yl)amino)phenyl)acrylamide], for which the concentration for half-maximal inhibition (IC50) with A431 cells was below 100 nM; in the assay on H1975 cells it was below 100 nM; in the assay with A549 cells, 100 to 500 nM. Besides, the inhibition at 0.1 µM against BTK was above 50%.

As to `C=CC(=O)Nc1cc(Nc2ncc3cccc(-c4cccc(F)c4)c3n2)ccc1N1CC(N(C)C)C1` [Example C025, N-(2-(3-(dimethylamino)azetidin-1-yl)-5-((8-(3-fluorophenyl)quinazolin-2-yl)amino)phenyl)acrylamide], the half-maximal inhibitory concentration (IC50) in the assay with A431 cells is below 100 nM; with H1975 cells it was below 100 nM; in the assay on A549 cells, 100 to 500 nM. The inhibition at 0.1 µM on BTK was above 50%.

The IC50 is the concentration that inhibits the measured activity by half. In general, inhibition refers to how much of the control response was suppressed.
